Reference: ChEMBL document CHEMBL1138147, “Respiratory syncytial virus fusion inhibitors. Part 3: Water-soluble benzimidazol-2-one derivatives with antiviral activity in vivo” (Bioorg Med Chem Lett, 2006)

Columns and labels:
[1] = Therapeutic index (CC50/EC50) for RSV infected Hep2 cells; type: cell-based, HEp-2; details: human, read-out: Ratio CC50/EC50
[2] = tested on: HEp-2; assay: Cytotoxicity against human Hep2 cells infected with RSV Long strain; type: functional
[3] = tested on: Respiratory syncytial virus; assay: Antiviral activity against RSV Long strain in human Hep2 cells; type: functional, organism-based; details: HEp-2
[4] = tested on: Cotton rat; assay: Efficacy in cotton rat measured as reduction in log TCID50 of RSV per gram of lung at 2.0 mg/mL; type: functional
[5] = tested on: Cotton rat; assay: Efficacy in cotton rat measured as reduction in log TCID50 of RSV per gram of lung at 1.6 mg/mL; type: functional, Sigmodon
[6] = tested on: Cotton rat; assay: Efficacy in cotton rat measured as reduction in log TCID50 of RSV per gram of lung at 1.33 mg/mL; type: functional, organism-based; details: Sigmodon
[7] = tested on: Cotton rat; assay: Efficacy in cotton rat measured as reduction in log TCID50 of RSV per gram of lung at 0.2 mg/mL; type: functional, Sigmodon
[8] = tested on: Cotton rat; assay: Efficacy in cotton rat measured as reduction in log TCID50 of RSV per gram of lung at 0.01 mg/mL; type: functional, Sigmodon
[9] = tested on: Cotton rat; assay: Efficacy in cotton measured as reduction in log TCID50 of RSV per gram of lung rat at 0.05 mg/mL; type: functional, Sigmodon
[10] = tested on: Cotton rat; assay: Efficacy in cotton rat measured as reduction in log TCID50 of RSV per gram of lung at 0.5 mg/mL; type: functional, Sigmodon
[11] = tested on: Mus musculus; assay: Efficacy in BALB/c mouse measured as reduction in log TCID50 of RSV per gram of lung at 120 mg/kg, sc; type: functional; details: route subcutaneous
[12] = tested on: Cotton rat; assay: Efficacy in cotton rat measured as reduction in log TCID50 of RSV per gram of lung at 1.0 mg/mL; type: functional, Sigmodon
[13] = tested on: Cotton rat; assay: Efficacy in cotton rat measured as reduction in log TCID50 of RSV per gram of lung at 0.67 mg/mL; type: functional, Sigmodon
[14] = tested on: Mus musculus; assay: Efficacy in BALB/c mouse measured as reduction in log TCID50 of RSV per gram of lung at 90 mg/kg, sc; type: functional; details: route subcutaneous
[15] = tested on: Cotton rat; assay: Efficacy in cotton rat measured as reduction in log TCID50 of RSV per gram of lung at 90 mg/kg, ip; type: functional, Sigmodon; details: route intraperitoneal

Row | SMILES | selectivity ratio [1] | CC50 [2] [nM] | EC50 [3] [nM] | also measured
1 | CC(C)CCn1c(Cn2c(=O)n(CCCCC(=O)O)c3ccccc32)nc2ccccc21 | 2060 | 16500 | 8 | 
2 | CC(C)CCn1c(Cn2c(=O)n(CCCCCc3nnn[nH]3)c3ccccc32)nc2ccccc21 | 6920 | 90000 | 13 | Activity ([4]; Sigmodon): Toxic
3 | O=C(O)c1cccc(Cn2c(=O)n(Cc3nc4ccccc4[nH]3)c3ccccc32)c1 | 6430 | > 194000 | 7 | 
4 | CC(C)CCn1c(Cn2c(=O)n(Cc3ccccc3S(=O)(=O)O)c3ccccc32)nc2ccccc21 | > 2710 | > 19000 | 7 | Efficacy [5]: 2.25
5 | CC(C)CCn1c(Cn2c(=O)n(CCN(C)C)c3ccccc32)nc2ccccc21 | 25 | 10000 | 400 | 
6 | CC(C)CCn1c(Cn2c(=O)n(Cc3ccc(C(=O)O)cc3)c3ccccc32)nc2ccccc21 | 2480 | 27300 | 11 | 
7 | O=c1n(Cc2ccccc2)c2ccccc2n1Cc1nc2ccccc2[nH]1 | 1130 | 129000 | 114 | 
8 | CC(C)CCn1c(Cn2c(=O)n(CCCCCC(=O)O)c3ccccc32)nc2ccccc21 | 1100 | 16500 | 15 | 
9 | CC(C)CCn1c(Cn2c(=O)n(Cc3cc(C(=O)O)cc(C(=O)O)c3)c3ccccc32)nc2ccccc21 | > 256 | > 168000 | 656 | 
10 | Oc1nc2ccccc2n1Cc1nc2ccccc2n1CCn1cnnn1 | 77 | 92000 | 1200 | 
11 | CC(C)CCn1c(Cn2c(=O)n(CCCC(=O)O)c3ccccc32)nc2ccccc21 | 1840 | 138000 | 75 | 
12 | CC(C)CCn1c(Cn2c(=O)n(CC(=O)NS(C)(=O)=O)c3ccccc32)nc2ccccc21 | 247 | 152000 | 613 | 
13 | O=C(O)Cn1c(=O)n(Cc2nc3ccccc3n2CCCO)c2ccccc21 | 119 | 229000 | 1930 | 
14 | CC(C)CCn1c(Cn2c(=O)n(CCC(=O)O)c3ccccc32)nc2ccccc21 | 6810 | 102000 | 15 | 
15 | CC(C)CCn1c(Cn2c(=O)n(Cc3ccccc3C(=O)O)c3ccccc32)nc2ccccc21 | 1430 | 15700 | 11 | 
16 | CC(C)CCn1c(Cn2c(=O)n(Cc3ccc(CP(=O)(O)O)cc3)c3ccccc32)nc2ccccc21 | 55 | 2800 | 51 | 
17 | C=C(C)n1c(=O)n(Cc2nc3ccccc3n2CCCc2nnn[nH]2)c2ccccc21 | > 23 | > 330 | 14 | 
18 | O=c1n(Cc2ccc(O)cc2)c2ccccc2n1Cc1nc2ccccc2[nH]1 | 932 | 58700 | 63 | 
19 | C=C(C)n1c(=O)n(Cc2nc3ccccc3n2CCc2nnn[nH]2)c2ccccc21 |  | > 249000 | 8 | Activity [6]: Toxic
20 | CC(C)CCn1c(Cn2c(=O)n(CCCCc3nnn[nH]3)c3ccccc32)nc2ccccc21 | 993 | 14900 | 15 | 
21 | C=C(C)n1c(=O)n(Cc2nc3ccccc3n2CCCN(C)C)c2ccccc21 | 265 | 19900 | 75 | 
22 | O=C(O)CN(CC(=O)O)C(=O)c1ccc(Cn2c(=O)n(Cc3nc4ccccc4n3CCCCO)c3ccccc32)cc1 | 1960 | 112000 | 57 | 
23 | O=C(O)Cn1c(=O)n(Cc2nc3ccccc3[nH]2)c2ccccc21 | 133 | 20600 | 155 | 
24 | CC(C)CCn1c(Cn2c(=O)n(CC(=O)NS(=O)(=O)c3ccccc3)c3ccccc32)nc2ccccc21 | 12 | 14100 | 1210 | 
25 | Cn1c(=O)n(Cc2nc3ccccc3[nH]2)c2ccccc21 | > 340 | > 202000 | 593 | 
26 | CC(C)CCn1c(Cn2c(=O)n(Cc3ccccc3C(=O)N[C@@H](CC(=O)O)C(=O)O)c3ccccc32)nc2ccccc21 | ≥ 25700 | 154000 | 6 | 

Row | SMILES | selectivity ratio [1] | CC50 [2] [nM] | EC50 [3] [nM] | also measured
27 | COc1ccc(Cn2c(=O)n(Cc3nc4ccccc4[nH]3)c3ccccc32)cc1 | 123 | 41100 | 333 | 
28 | O=c1n(Cc2nc3ccccc3[nH]2)c2ccccc2n1Cc1ccccc1S(=O)(=O)O | 9970 | 130000 | 13 | 
29 | CC(C)CCn1c(Cn2c(=O)n(Cc3ccc(P(=O)(O)O)cc3)c3ccccc32)nc2ccccc21 | 3000 | > 175000 | 27 | Efficacy [7]: 3.5; Efficacy [8]: 4.4; Efficacy [9]: 4; Efficacy [4]: 2.1
30 | CC(C)n1c(=O)n(Cc2nc3ccccc3n2CCc2nnn[nH]2)c2ccccc21 | 11800 | 177000 | 15 | 
31 | CC(C)n1c(=O)n(Cc2nc3ccccc3n2CCc2noc(O)n2)c2ccccc21 | 3540 | 75400 | 21 | Efficacy [10]: 2.1; Efficacy [11]: 2.55
32 | CC(C)CCn1c(Cn2c(=O)n(CCCS(=O)(=O)O)c3ccccc32)nc2ccccc21 | 3010 | 114000 | 38 | 
33 | C=C(C)n1c(=O)n(Cc2nc3ccccc3n2CCc2nn[nH]n2)c2ccccc21 | 14600 |  |  | 
34 | CC(C)CCn1c(Cn2c(=O)n(CCCc3nnn[nH]3)c3ccccc32)nc2ccccc21 | 158 | 37100 | 235 | 
35 | O=C(O)c1ccc(Cn2c(=O)n(Cc3nc4ccccc4n3CCCO)c3ccccc32)cc1 | 4280 | 210000 | 49 | 
36 | CC(C)CCn1c(Cn2c(=O)n(Cc3ccc(Cn4c(=O)ccn(CC(=O)N[C@@H](CC(=O)O)C(=O)O)c4=O)cc3)c3ccccc32)nc2ccccc21 | > 13200 | > 106000 | 8 | Efficacy [7]: 3.22; Efficacy [12]: 1.83
37 | C=C(C)n1c(=O)n(Cc2nc3ccccc3n2Cc2nn[nH]n2)c2ccccc21 | 21 | 181000 | 8440 | 
38 | CC(C)CCn1c(Cn2c(=O)n(Cc3ccc(C(=O)N[C@@H](CP(=O)(O)O)C(=O)O)cc3)c3ccccc32)nc2ccccc21 | > 3350 | > 114000 | 34 | Efficacy [10]: 2.43
39 | O=c1n(Cc2ccc(P(=O)(O)O)cc2)c2ccccc2n1Cc1nc2ccccc2[nH]1 | > 473 | > 174000 | 368 | 
40 | CC(C)CCn1c(Cn2c(=O)n(CCCCS(=O)(=O)O)c3ccccc32)nc2ccccc21 | 56 | 2900 | 52 | 
41 | CC(C)CCn1c(Cn2c(=O)n(Cc3ccc(C(=O)N[C@@H](CC(=O)O)C(=O)O)cc3)c3ccccc32)nc2ccccc21 | > 28800 | > 144000 | 5 | Efficacy [4]: 2.6
42 | CC(C)CCn1c(Cn2c(=O)n(Cc3ccc(Cn4c(=O)ccn(CC(=O)O)c4=O)cc3)c3ccccc32)nc2ccccc21 | > 53000 | > 159000 | 3 | 
43 | CC(C)CCn1c(Cn2c(=O)n(CCCN(C)C)c3ccccc32)nc2ccccc21 | 18 | 5300 | 292 | 
44 | CN(C)CCCn1c(Cn2c(O)nc3ccccc32)nc2ccccc21 | 53 | 89100 | 1660 | 
45 | O=C(O)c1ccc(Cn2c(=O)n(Cc3nc4ccccc4[nH]3)c3ccccc32)cc1 | 5400 | 75500 | 14 | Efficacy [13]: 3.6
46 | CCOP(=O)(O)c1ccc(Cn2c(=O)n(Cc3nc4ccccc4n3CCC(C)C)c3ccccc32)cc1 | > 3350 | > 180000 | 48 | 
47 | CC(C)CCn1c(Cn2c(=O)n(Cc3nn[nH]n3)c3ccccc32)nc2ccccc21 | > 420 | > 210000 | 500 | 
48 | NC(=O)c1ncn([C@@H]2O[C@H](CO)[C@@H](O)[C@H]2O)n1 [RIBAVIRIN] |  |  |  | Efficacy [14]: 1.86; Efficacy [15]: 2.5
49 | Oc1nc2ccccc2n1Cc1nc2ccccc2[nH]1 | 226 | 228000 | 1010 | 
50 | O=C(O)c1ccc(Cn2c(=O)n(Cc3nc4ccccc4n3CCCCO)c3ccccc32)cc1 | > 49000 | > 196000 | 4 | 
51 | CC(C)CCn1c(Cn2c(=O)n(CC(=O)O)c3ccccc32)nc2ccccc21 |  | 194000 | 163 | 
52 | CC(C)CCn1c(Cn2c(=O)n(Cc3cccc(C(=O)O)c3)c3ccccc32)nc2ccccc21 | 1070 | 10700 | 10 | 
